# Test results as given in PubChem BioAssay AID1259426 (Fisher Drug Discovery Resource Center, 2018).
# Calls of active or inactive are those of the source.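 The calls were made as follows: active = EC50 under a set limit in control cells lacking the mosquito receptor, marking a fluorescence artifact; inactive = the rest.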
# Target: HEK293 Galpha15/GCaMP6s without NPYLR7, calcium fluorescence
# Assay: nonspecific activation in parental Galpha15/GCaMP6s cells – cell-based, HEK293 lacking NPYLR7, counter-screen for mosquito NPYLR7 agonist project, dose response (AID 1259426);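 also: potency for a rise in fluorescence over baseline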
row,Structure (SMILES),EC50
1,Cc1cc2c(c(-c3ccc4c(cnn4C)c3)c1)OC(CN)C2 (configuration not stated),> 20 µM (inactive)
2,CCOC(=O)N1CCN(c2ccc(/C=C(\C#N)c3nc4ccccc4[nH]3)o2)CC1,> 20 µM (inactive)
3,COc1ccc(NC[C@@H]2C=C(C)[C@H](Cc3nnc(C)o3)C[C@H]2C(C)C)cn1,13.3 µM
4,Nc1ccc(-c2nc3cc(N)cc(Cl)c3o2)cc1,17 µM
5,COc1cc(-c2nc3n(n2)C(c2ccc(O)cc2)C(C(N)=O)=C(C)N3)cc(OC)c1OC (configuration not stated),> 20 µM (inactive)
6,N#CC1C(=N)SC(=N)C(C#N)C1c1ccc(Cl)cc1Cl (configuration not stated),7.76 µM
7,CCN(CC)c1ccc2cc(C(N)=O)/c(=N\NC(N)=S)oc2c1,< 0.039 µM
8,N#CC(C#N)=C1C=C2C=C(N3CCCCCC3)CCC2CC1 (configuration not stated),< 0.039 µM
9,CC(C)(C)NCC(O)c1ccc(O)c(CO)c1 (configuration not stated),> 20 µM (inactive)
10,CC1(C)CC(=O)C2C(=Nc3[nH]c(=S)[nH]c(=O)c3C2c2ccc3c(c2)OCO3)C1 (configuration not stated),> 20 µM (inactive)
11,COc1cccc(CNC2CC2)c1OCc1nc(CO)cs1,> 20 µM (inactive)
12,CCOC(=O)N1CCC(NC(=O)c2sc3nc4c(c(C(F)(F)F)c3c2N)CC(C)CC4)CC1 (configuration not stated),> 20 µM (inactive)
13,CC(=O)OC(C)C[N+](C)(C)C (configuration not stated),> 20 µM (inactive)
14,COc1cc(NC(=O)N2CC(=O)N3CCc4c(F)cccc4C3C2)cc(OC)c1OC (configuration not stated),> 20 µM (inactive)
15,Cc1cc(C)c2cc3c(cc2n1)CCN3CC(O)CO (configuration not stated),2.78 µM
16,N#CC(C#N)=C1C=C2C=C(N3CCN(Cc4ccccc4)CC3)CCC2CC1 (configuration not stated),> 20 µM (inactive)
17,COc1cc(C=C2C=c3c(O)cccc3=C2O)cc(Cl)c1O,0.524 µM
18,COc1cc(C=C(C#N)S(=O)(=O)c2ccc(F)cc2)cc(Br)c1O,> 20 µM (inactive)
19,COc1cc(/C=C(/C#N)c2nc3cc(Cl)ccc3s2)ccc1O,> 20 µM (inactive)
20,COC(=O)c1cnc(/C=C/c2cc(C)c(O)c(C)c2)s1,> 20 µM (inactive)
21,Cc1ccc(CNC(=O)NC(c2ccc3c(c2)OCCCO3)C(C)C)cc1F (configuration not stated),> 20 µM (inactive)
22,CN1C(=S)N(C2CCCCC2)C(=O)/C1=C\c1ccc2c(c1)OCO2,> 20 µM (inactive)

# The next lines start with the values.
row,EC50,Structure (SMILES)
1,> 20 µM (inactive),N#Cc1cccc(C(=O)N2CCN(C(c3ccccc3)c3ccc(Br)cc3)CC2)c1 (configuration not stated)
2,3.18 µM,CC(=O)Nc1sc2c(c1-c1nc3ccccc3s1)CCN(Cc1ccccc1)C2
3,2.69 µM,O=C(O)CCN1C(=O)/C(=C/c2ccc(O)cc2)SC1=S
4,> 20 µM (inactive),COc1cc(OC)c(C2=NOC3(CC(=O)N(c4cccc(Cl)c4)C3=O)C2)cc1OC (configuration not stated)
5,> 20 µM (inactive),CNC(=O)NC(=O)CCN1CC(c2ccccc2Cl)c2c([nH]c3ccccc23)C1C (configuration not stated)
6,0.346 µM,CN(C)c1ccc(/C=C2/SC(=S)N(CC(=O)O)C2=O)cc1Br
7,> 20 µM (inactive),CC(C)C(=O)Nc1sc2c(c1-c1nc3ccccc3s1)CCN(C)C2
8,17.6 µM,CCN1C(=Cc2cc(C)[n+](CCOC)c(C)c2)Sc2ccccc21
9,< 0.039 µM,O=C1c2cccc3c(NCC(O)CCl)ccc(c23)C(=O)N1c1ccccc1 (configuration not stated)
10,> 20 µM (inactive),Cc1c(NC(=O)COC(=O)C(C#N)=Cc2ccc(N(C)C)cc2)c(=O)n(-c2ccccc2)n1C
11,0.219 µM,Cc1cccc(C2=N/C(=C\c3cc4cc5c6c(c4oc3=O)CCCN6CCC5)C(=O)O2)c1
12,18.1 µM,O=C1SC(Nc2ccc(I)cc2)C(=O)N1c1ccccc1 (configuration not stated)
13,> 20 µM (inactive),O=C(N=Nc1c(O)[nH]c2ccc(Br)cc12)c1ccccc1Cl
14,1.4 µM,CSc1ccc(C2CC(c3cccs3)=Nc3ncnn32)cc1 (configuration not stated)
15,13.4 µM,O=c1oc2c(CN3CC4CC(C3)c3cccc(=O)n3C4)c(O)ccc2cc1-c1nc2ccccc2s1 (configuration not stated)
16,> 20 µM (inactive),NS(=O)(=O)c1ccc(NC(NC(=O)c2ccco2)C(=O)c2ccc(Cl)cc2)cc1 (configuration not stated)
17,> 20 µM (inactive),O=[N+]([O-])c1ccc(-n2nc3ccc4nonc4c3n2)cc1
18,6.94 µM,CCN1CCN(Cc2c(O)ccc3c2O/C(=C\c2cc4cc(Br)ccc4o2)C3=O)CC1
19,> 20 µM (inactive),CCOc1ccc(/C=C2N=C(/C=C/c3ccccc3)OC/2=O)cc1
20,> 20 µM (inactive),Cc1cccc(Oc2nc3ccccn3c(=O)c2/C=C(\C#N)c2nc3ccccc3s2)c1
21,> 20 µM (inactive),CC(C)CN1C(=O)C(=Cc2c(N3CCN(CCO)CC3)nc3ccccn3c2=O)SC1=S
22,3.9 µM,CCN1/C(=C/C2=CC(=O)CC(C)(C)C2)Sc2ccccc21
23,0.0953 µM,CCN=c1cc2oc3cc(NCC)c(C)cc3c(-c3ccccc3C(=O)OCC)c-2cc1C
24,1.94 µM,O=C1/C(=C/c2cc3ccccc3o2)Oc2c1ccc(O)c2CN1CCN(CCO)CC1
25,7.38 µM,Cc1cc(O)c(CN2CCN(CCO)CC2)c2c1C(=O)/C(=C/c1cc3ccccc3o1)O2
26,9.55 µM,COc1ccc(/C=C2\Oc3c(ccc4c3CN(Cc3ccncc3)CO4)C2=O)cc1OC
27,> 20 µM (inactive),COc1ccccc1OCCCOc1ccc(Br)cc1Cl
28,8.35 µM,COc1ccc(/C=C2\Oc3c(ccc4c3CN(C3CCS(=O)(=O)C3)CO4)C2=O)cc1 (configuration not stated)
29,> 20 µM (inactive),CSc1ccc(C2CC(c3ccc(Cl)cc3)=Nc3ncnn32)cc1 (configuration not stated)
30,7.71 µM,O=C(CC1SC(=O)NC1=O)Oc1ccc(/C=C2\SC(=O)NC2=S)cc1 (configuration not stated)
